Read-outs that look alike come from different tables or passages of the source. One block for each compound: values may come before it. Peptide text beside a SMILES is read from it. * marks the point of attachment. Biotin = O=C1N[C@H]2[C@H](CS[C@H]2CCCCC(=O)*)N1
Key:
[1] = biological target: T1, PDZ-domain polypeptide (GST/PDZ fusion protein) (Homo sapiens, UniProt Q5TCQ9); assay: Apparent affinity (Kd) by titration of PL peptide in the G assay; type: binding
T1 construct: made in house; host or cells: E. coli (DH5alpha, BL21 or JM109)
T1 sequence (Q5TCQ9 1-1481): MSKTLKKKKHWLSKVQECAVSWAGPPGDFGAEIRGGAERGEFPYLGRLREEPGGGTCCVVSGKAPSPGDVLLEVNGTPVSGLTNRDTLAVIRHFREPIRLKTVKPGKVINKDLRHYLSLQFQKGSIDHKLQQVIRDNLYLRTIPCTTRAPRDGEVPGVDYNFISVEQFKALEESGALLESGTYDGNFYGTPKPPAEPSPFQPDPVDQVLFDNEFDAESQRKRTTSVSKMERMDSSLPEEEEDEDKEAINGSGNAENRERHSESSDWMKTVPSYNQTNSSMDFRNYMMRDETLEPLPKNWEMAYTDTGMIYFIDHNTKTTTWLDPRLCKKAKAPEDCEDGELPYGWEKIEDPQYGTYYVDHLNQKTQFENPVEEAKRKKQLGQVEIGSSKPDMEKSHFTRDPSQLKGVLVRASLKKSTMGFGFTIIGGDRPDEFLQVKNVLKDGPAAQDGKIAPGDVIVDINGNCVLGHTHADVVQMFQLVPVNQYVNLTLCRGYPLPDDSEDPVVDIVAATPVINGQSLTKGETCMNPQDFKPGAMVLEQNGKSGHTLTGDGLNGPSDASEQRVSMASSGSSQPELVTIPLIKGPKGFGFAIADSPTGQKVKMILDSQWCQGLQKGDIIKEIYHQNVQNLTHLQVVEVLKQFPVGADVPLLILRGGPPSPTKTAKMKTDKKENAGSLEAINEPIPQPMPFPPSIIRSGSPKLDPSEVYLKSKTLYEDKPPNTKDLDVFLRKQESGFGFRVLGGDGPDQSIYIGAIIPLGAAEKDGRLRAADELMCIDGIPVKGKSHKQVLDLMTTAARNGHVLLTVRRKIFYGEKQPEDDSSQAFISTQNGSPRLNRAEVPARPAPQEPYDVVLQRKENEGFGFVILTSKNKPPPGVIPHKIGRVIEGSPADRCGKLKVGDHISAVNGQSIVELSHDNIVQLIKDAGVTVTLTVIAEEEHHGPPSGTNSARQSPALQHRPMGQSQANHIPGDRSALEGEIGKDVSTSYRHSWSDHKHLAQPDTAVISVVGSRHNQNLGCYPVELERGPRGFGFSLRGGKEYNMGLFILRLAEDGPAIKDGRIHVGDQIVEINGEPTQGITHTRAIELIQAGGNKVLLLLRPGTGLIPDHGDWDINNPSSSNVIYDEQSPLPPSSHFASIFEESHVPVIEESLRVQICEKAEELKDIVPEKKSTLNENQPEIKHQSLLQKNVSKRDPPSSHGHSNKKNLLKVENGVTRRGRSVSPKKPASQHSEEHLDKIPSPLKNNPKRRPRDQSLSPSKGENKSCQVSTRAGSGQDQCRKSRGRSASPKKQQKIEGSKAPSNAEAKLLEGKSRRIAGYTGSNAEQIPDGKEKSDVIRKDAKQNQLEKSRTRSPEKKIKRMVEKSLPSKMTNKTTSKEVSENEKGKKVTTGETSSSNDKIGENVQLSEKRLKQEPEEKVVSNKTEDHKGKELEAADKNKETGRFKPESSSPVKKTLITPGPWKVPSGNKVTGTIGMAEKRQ
Method in brief: (§1)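 A fixed concentration of GST/PDZ fusion protein, 5 ug/ml by default, was mixed in solution with increasing labeled PL peptide (e.g. 0.1 uM-1 mM). Reaction times ranged from 10 minutes to 2 days at 4-37° C. Complexes were separated from free peptide and detected via the label as in the G assay, apparent affinity coming from the saturating concentration.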

[2] = biological target: T2, PDZ-domain polypeptide (GST/PDZ fusion protein) (Homo sapiens, UniProt Q12923); assay: as above; type: binding
T2 construct: made in house; host or cells: E. coli (DH5alpha, BL21 or JM109)
Method in brief: as §1

[3] = PDZ KIAA1634, PDZ Domain 1, read-out: Peptide Optimal Conc (Kd by titration of the PL peptide)
[4] = PDZ PTPL-1, PDZ Domain 2, read-out: Peptide Optimal Conc (Kd by titration of the PL peptide)

T2 sequence (Q12923 whole entry, the tested form may be a part): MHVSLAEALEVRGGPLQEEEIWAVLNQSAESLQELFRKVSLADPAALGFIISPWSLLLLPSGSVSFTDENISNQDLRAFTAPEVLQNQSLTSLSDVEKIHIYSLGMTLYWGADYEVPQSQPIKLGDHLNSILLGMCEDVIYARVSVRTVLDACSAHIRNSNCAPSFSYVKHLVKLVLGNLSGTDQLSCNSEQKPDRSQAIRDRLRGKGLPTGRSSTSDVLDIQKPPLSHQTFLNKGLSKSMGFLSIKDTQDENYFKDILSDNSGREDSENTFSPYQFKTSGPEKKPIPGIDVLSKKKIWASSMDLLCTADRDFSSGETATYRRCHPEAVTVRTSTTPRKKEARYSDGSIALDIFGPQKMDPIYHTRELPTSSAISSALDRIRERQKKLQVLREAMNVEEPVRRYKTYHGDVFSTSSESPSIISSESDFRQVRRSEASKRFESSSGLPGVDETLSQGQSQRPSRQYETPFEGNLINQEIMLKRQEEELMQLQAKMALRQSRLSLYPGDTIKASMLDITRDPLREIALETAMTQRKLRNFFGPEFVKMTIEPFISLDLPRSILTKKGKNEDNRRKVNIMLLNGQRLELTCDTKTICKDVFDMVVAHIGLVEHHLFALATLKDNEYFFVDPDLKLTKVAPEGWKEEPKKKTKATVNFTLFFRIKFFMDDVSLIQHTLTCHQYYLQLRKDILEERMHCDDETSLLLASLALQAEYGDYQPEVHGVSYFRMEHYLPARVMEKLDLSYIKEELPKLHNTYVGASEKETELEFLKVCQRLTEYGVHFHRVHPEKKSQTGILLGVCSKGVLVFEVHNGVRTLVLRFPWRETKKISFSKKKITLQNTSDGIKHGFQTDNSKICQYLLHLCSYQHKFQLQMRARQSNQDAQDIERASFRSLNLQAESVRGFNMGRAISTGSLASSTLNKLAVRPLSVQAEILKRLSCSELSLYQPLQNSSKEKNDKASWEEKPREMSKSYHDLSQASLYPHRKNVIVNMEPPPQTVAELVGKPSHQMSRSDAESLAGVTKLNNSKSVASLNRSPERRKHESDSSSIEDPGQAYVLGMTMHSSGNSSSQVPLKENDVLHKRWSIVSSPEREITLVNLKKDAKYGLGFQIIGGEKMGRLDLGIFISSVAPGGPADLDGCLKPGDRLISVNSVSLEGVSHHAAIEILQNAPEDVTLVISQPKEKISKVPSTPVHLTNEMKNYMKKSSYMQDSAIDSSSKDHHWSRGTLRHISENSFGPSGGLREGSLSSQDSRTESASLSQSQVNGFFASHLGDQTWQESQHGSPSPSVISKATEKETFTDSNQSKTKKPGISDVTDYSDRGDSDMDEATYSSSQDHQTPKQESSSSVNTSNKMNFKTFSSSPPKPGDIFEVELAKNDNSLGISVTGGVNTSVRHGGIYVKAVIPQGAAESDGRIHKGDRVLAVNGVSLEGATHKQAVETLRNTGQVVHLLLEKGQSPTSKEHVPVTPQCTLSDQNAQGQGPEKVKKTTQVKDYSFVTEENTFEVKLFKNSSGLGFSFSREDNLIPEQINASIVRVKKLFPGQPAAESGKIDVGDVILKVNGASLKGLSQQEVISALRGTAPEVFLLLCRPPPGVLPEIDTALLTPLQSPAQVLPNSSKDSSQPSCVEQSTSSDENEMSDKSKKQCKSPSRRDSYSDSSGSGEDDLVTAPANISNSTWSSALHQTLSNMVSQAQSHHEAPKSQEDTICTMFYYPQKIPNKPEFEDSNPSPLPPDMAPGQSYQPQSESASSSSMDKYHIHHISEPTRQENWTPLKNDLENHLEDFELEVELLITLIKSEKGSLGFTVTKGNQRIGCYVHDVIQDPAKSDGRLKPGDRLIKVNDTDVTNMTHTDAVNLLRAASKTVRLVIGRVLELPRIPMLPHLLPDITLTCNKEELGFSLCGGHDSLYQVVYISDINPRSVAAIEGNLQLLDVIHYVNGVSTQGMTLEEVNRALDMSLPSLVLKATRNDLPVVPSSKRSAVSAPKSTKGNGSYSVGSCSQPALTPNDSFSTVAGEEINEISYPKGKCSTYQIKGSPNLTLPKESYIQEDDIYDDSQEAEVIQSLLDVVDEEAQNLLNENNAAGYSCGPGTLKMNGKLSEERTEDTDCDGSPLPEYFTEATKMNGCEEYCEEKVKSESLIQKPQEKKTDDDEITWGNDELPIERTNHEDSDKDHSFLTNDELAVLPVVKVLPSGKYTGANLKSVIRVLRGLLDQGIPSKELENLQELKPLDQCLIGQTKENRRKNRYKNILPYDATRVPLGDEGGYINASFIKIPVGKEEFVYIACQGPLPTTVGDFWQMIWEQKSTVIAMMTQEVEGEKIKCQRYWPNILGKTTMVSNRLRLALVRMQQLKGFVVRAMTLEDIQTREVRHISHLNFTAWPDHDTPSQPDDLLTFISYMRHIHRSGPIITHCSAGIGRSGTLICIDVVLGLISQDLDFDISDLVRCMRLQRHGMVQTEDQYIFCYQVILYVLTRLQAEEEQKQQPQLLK

SMILES: CC[C@H](C)[C@H](NC(=O)[C@H](CC(=O)O)NC(=O)[C@H](CCC(=O)O)NC(=O)[C@H](CCCNC(=N)N)NC(=O)[C@@H](NC(=O)CCCC[C@@H]1SC[C@@H]2NC(=O)N[C@@H]21)[C@@H](C)O)C(=O)N[C@@H](Cc1ccc(O)cc1)C(=O)N[C@H](C(=O)N[C@@H](CC(N)=O)C(=O)N[C@@H](Cc1ccc(O)cc1)C(=O)N1CCC[C@H]1C(=O)N[C@H](C(=O)N[C@@H](Cc1ccccc1)C(=O)N[C@@H](CO)C(=O)N[C@@H](CCCNC(=N)N)C(=O)N[C@@H](CCCNC(=N)N)C(=O)N1CCC[C@H]1C(=O)N[C@@H](CCCCN)C(=O)N[C@H](C(=O)N[C@@H](CCCNC(=N)N)C(=O)N[C@H](C(=O)O)C(C)C)[C@@H](C)O)[C@@H](C)O)C(C)C [DNAM-1] (Biotin-TREDIYVNYPTFSRRPKTRV-OH; C-terminus assumed)
Kd ([1]; Peptide Optimal Conc (Kd by titration of the PL peptide), PDZ KIAA1634, PDZ Domain 1): 1000 nM

SMILES: CC[C@H](C)[C@H](NC(=O)[C@H](CO)NC(=O)[C@@H](NC(=O)[C@H](Cc1ccccc1)NC(=O)[C@H](CO)NC(=O)CCCC[C@@H]1SC[C@@H]2NC(=O)N[C@@H]21)[C@@H](C)O)C(=O)N[C@@H](CC(C)C)C(=O)N[C@H](C(=O)N[C@@H](CS)C(=O)N[C@@H](Cc1c[nH]cn1)C(=O)N[C@@H](CCC(N)=O)C(=O)N[C@@H](CCCNC(=N)N)C(=O)N[C@@H](CCCNC(=N)N)C(=O)N[C@H](C(=O)N[C@@H](CCC(N)=O)C(=O)N[C@@H](CCCNC(=N)N)C(=O)N[C@@H](CCCCN)C(=O)N[C@@H](CCC(=O)O)C(=O)N[C@H](C(=O)N[C@H](C(=O)N[C@@H](C)C(=O)O)C(C)C)[C@@H](C)O)[C@@H](C)O)[C@@H](C)O [GluR5-2 (rat)]
Kd ([1]; PDZ KIAA1634, PDZ Domain 1, titration of the PL peptide, read-out: Peptide Optimal Conc (Kd, dissociation constant)): 150 nM

SMILES: CC[C@H](C)[C@H](NC(=O)[C@H](CCC(N)=O)NC(=O)[C@@H](NC(=O)[C@H](Cc1c[nH]cn1)NC(=O)[C@H](CCC(N)=O)NC(=O)[C@H](CC(=O)O)NC(=O)[C@H](CCC(=O)O)NC(=O)[C@H](CC(=O)O)NC(=O)[C@H](Cc1ccccc1)NC(=O)[C@@H]1CCCN1C(=O)[C@H](CCC(=O)O)NC(=O)[C@H](CC(N)=O)NC(=O)[C@H](CCC(=O)O)NC(=O)[C@@H]1CCCN1C(=O)[C@H](CC(=O)O)NC(=O)[C@H](CO)NC(=O)[C@H](CC(=O)O)NC(=O)CCCC[C@@H]1SC[C@@H]2NC(=O)N[C@@H]21)[C@@H](C)O)C(=O)N[C@H](C(=O)N[C@@H](CCCCN)C(=O)N[C@H](C(=O)O)C(C)C)[C@@H](C)O [PTEN]
Kd [2, 4]: 300 nM

Second part, the compound after the results:

Kd ([2]; PDZ PTPL-1, PDZ Domain 4, titration of the PL peptide, read-out: Peptide Optimal Conc (Kd, dissociation constant)): 8000 nM
SMILES: CC[C@H](C)[C@H](NC(=O)[C@H](Cc1ccc(O)cc1)NC(=O)[C@H](CC(C)C)NC(=O)[C@H](CCC(N)=O)NC(=O)[C@H](Cc1c[nH]cn1)NC(=O)[C@H](CO)NC(=O)[C@H](C)NC(=O)[C@H](CC(C)C)NC(=O)[C@@H](NC(=O)[C@H](CC(=O)O)NC(=O)[C@H](CCSC)NC(=O)[C@H](Cc1ccccc1)NC(=O)[C@@H]1CCCN1C(=O)[C@H](CCCNC(=N)N)NC(=O)[C@@H](NC(=O)[C@H](CC(C)C)NC(=O)[C@H](CC(N)=O)NC(=O)[C@H](CC(=O)O)NC(=O)[C@@H](NC(=O)[C@H](CO)NC(=O)CCCC[C@@H]1SC[C@@H]2NC(=O)N[C@@H]21)[C@@H](C)O)C(C)C)[C@@H](C)O)C(=O)O [presenilin-2] (Biotin-STDNLVRPFMDTLASHQLYI-OH; C-terminus assumed)

Kd ([2]; PDZ PTPL-1, PDZ Domain 4, read-out: Peptide Optimal Conc (Kd by titration of the PL peptide)): 400 nM | Kd [1, 3]: 900 nM
SMILES: CC(C)C[C@H](NC(=O)[C@H](Cc1c[nH]c2ccccc12)NC(=O)[C@H](Cc1c[nH]cn1)NC(=O)[C@H](CCCNC(=N)N)NC(=O)[C@H](CC(C)C)NC(=O)[C@@H](NC(=O)[C@H](Cc1ccccc1)NC(=O)[C@H](CCC(N)=O)NC(=O)[C@H](CCCNC(=N)N)NC(=O)[C@@H](NC(=O)[C@H](CCC(=O)O)NC(=O)CNC(=O)[C@H](CCCNC(=N)N)NC(=O)[C@H](CC(=O)O)NC(=O)[C@@H](NC(=O)[C@H](CC(C)C)NC(=O)[C@H](CCC(=O)O)NC(=O)[C@H](CCCNC(=N)N)NC(=O)CCCC[C@@H]1SC[C@@H]2NC(=O)N[C@@H]21)C(C)C)C(C)C)[C@@H](C)O)C(=O)N[C@@H](CCCCN)C(=O)N[C@H](C(=O)O)C(C)C [Dopamine transporter (Na+-dependent)] (Biotin-RELVDRGEVRQFTLRHWLKV-OH; C-terminus assumed)

Kd [2, 4]: 200 nM
SMILES: CC(C)C[C@H](NC(=O)[C@H](CC(C)C)NC(=O)[C@@H](NC(=O)[C@H](CC(=O)O)NC(=O)CCCC[C@@H]1SC[C@@H]2NC(=O)N[C@@H]21)[C@@H](C)O)C(=O)N[C@@H](CC(C)C)C(=O)N[C@H](C(=O)N[C@@H](CCC(=O)O)C(=O)N[C@@H](CC(N)=O)C(=O)N[C@@H](CCC(=O)O)C(=O)NCC(=O)N[C@@H](CC(=O)O)C(=O)N[C@@H](CCCCN)C(=O)N[C@H](C(=O)N[C@@H](CCC(=O)O)C(=O)N[C@@H](CCC(=O)O)C(=O)N[C@@H](CCC(N)=O)C(=O)N[C@H](C(=O)N[C@@H](CO)C(=O)N[C@@H](Cc1ccc(O)cc1)C(=O)N[C@H](C(=O)O)C(C)C)C(C)C)[C@@H](C)O)[C@@H](C)O [5H2B_HUMAN] (Biotin-DTLLLTENEGDKTEEQVSYV-OH; C-terminus assumed)

Kd [1, 3]: 100 nM
SMILES: CC(C)C[C@H](NC(=O)CNC(=O)[C@@H](NC(=O)[C@H](CO)NC(=O)[C@H](CC(N)=O)NC(=O)[C@H](Cc1ccccc1)NC(=O)CNC(=O)[C@H](C)NC(=O)[C@H](C)NC(=O)[C@H](Cc1ccccc1)NC(=O)[C@@H](NC(=O)CCCC[C@@H]1SC[C@@H]2NC(=O)N[C@@H]21)[C@@H](C)O)[C@@H](C)O)C(=O)N1CCC[C@H]1C(=O)N[C@@H](Cc1c[nH]cn1)C(=O)N[C@@H](CO)C(=O)N[C@H](C(=O)N[C@H](C(=O)N[C@@H](CCCNC(=N)N)C(=O)N[C@H](C(=O)O)C(C)C)[C@@H](C)O)[C@@H](C)O [Neuroligin] (Biotin-TFAAGFNSTGLPHSTTRV-OH; C-terminus assumed)

Kd ([1]; PDZ KIAA1634, PDZ Domain 5, read-out: Peptide Optimal Conc (non-zero value: Kd by titration of the PL peptide)): 2000 nM
SMILES: CC(C)C[C@H](NC(=O)[C@H](CC(=O)O)NC(=O)[C@H](CO)NC(=O)[C@H](CCC(=O)O)NC(=O)CNC(=O)[C@H](Cc1ccc(O)cc1)NC(=O)[C@H](CC(C)C)NC(=O)[C@H](C)NC(=O)[C@H](CO)NC(=O)[C@H](CO)NC(=O)[C@H](Cc1ccccc1)NC(=O)[C@H](C)NC(=O)[C@H](C)NC(=O)[C@H](Cc1ccc(O)cc1)NC(=O)[C@H](CC(=O)O)NC(=O)[C@H](CC(C)C)NC(=O)[C@H](C)NC(=O)CNC(=O)[C@@H]1CCCN1C(=O)[C@@H](NC(=O)CCCC[C@@H]1SC[C@@H]2NC(=O)N[C@@H]21)C(C)C)C(=O)O [a-actinin 2] (Biotin-VPGALDYAAFSSALYGESDL-OH; C-terminus assumed)

Source: US20050282743A1, “Molecular interactions in cells” (Arbor Vita Corporation, priority 2001, published 2005)
